Assay: osmotic coefficient (dimensionless); mn = molality of the nth substance listed, in mol/kg
Conditions: 318.15 K, 101 kPa, Liquid

CCCCn1cc[n+](C)c1.[Br-] [1-butyl-3-methylimidazolium bromide] + O
vapor pressure osmometry
Conditions	osmotic coefficient
m1 = 0.022	0.944
m1 = 0.0461	0.926
m1 = 0.0726	0.894
m1 = 0.1241	0.855
m1 = 0.2702	0.809
m1 = 0.3522	0.785
m1 = 0.3994	0.777
m1 = 0.5204	0.755
m1 = 0.7354	0.726
m1 = 0.9713	0.713
m1 = 1.272	0.701
m1 = 2.024	0.69

CCCCn1cc[n+](C)c1.F[P-](F)(F)(F)(F)F [1-butyl-3-methylimidazolium hexafluorophosphate] + CC#N
osmometer
Conditions	osmotic coefficient
m1 = 0.0116	0.76
m1 = 0.019	0.636
m1 = 0.0321	0.477
m1 = 0.0366	0.436
m1 = 0.0544	0.323
m1 = 0.0691	0.278
m1 = 0.0918	0.287
m1 = 0.1015	0.314
m1 = 0.1285	0.415
m1 = 0.1496	0.515
m1 = 0.1789	0.692
m1 = 0.2032	0.857

CCCCn1cc[n+](C)c1.F[B-](F)(F)F [1-butyl-3-methylimidazolium tetrafluoroborate] + CC#N
osmometer
Conditions	osmotic coefficient
m1 = 0.0093	0.906
m1 = 0.0203	0.648
m1 = 0.0341	0.462
m1 = 0.0631	0.293
m1 = 0.0795	0.273
m1 = 0.1043	0.314
m1 = 0.1163	0.344
m1 = 0.1359	0.412
m1 = 0.1472	0.462
m1 = 0.1631	0.553
m1 = 0.1791	0.646
m1 = 0.2091	0.872

CCCCn1cc[n+](C)c1.F[B-](F)(F)F [1-butyl-3-methylimidazolium tetrafluoroborate] + O
vapor pressure osmometry
Conditions	osmotic coefficient
m1 = 0.0101	1.01
m1 = 0.0355	0.992
m1 = 0.044	0.927
m1 = 0.0701	0.887
m1 = 0.0971	0.864
m1 = 0.152	0.808
m1 = 0.1977	0.793
m1 = 0.2891	0.739
m1 = 0.3968	0.672
m1 = 0.4678	0.657
m1 = 0.5632	0.611
m1 = 0.799	0.532
m1 = 1.023	0.473
m1 = 1.468	0.372
m1 = 2.417	0.257
